The values below come from patent US11338007B2, “Combination formulation of three antiviral compounds” (priority 2016, dated 2022).

As a reminder, the Cmax is the maximum level reached in the sampled fluid or tissue.

Data set [1] can be described thus: Food effect (high calorie/high-fat meals) on pharmacokinetics in human subjects (Table 28). It is filed as in vivo. Conditions: tablets 400/100/100 mg; high calorie/high-fat meal. The procedure:
The effect of food (high calorie/high-fat meals) on the pharmacokinetics of sofosbuvir/velpatasvir SSD/voxilaprevir SSD tablets (400/100/100 mg). […] As a result, sofosbuvir/velpatasvir SSD/voxilaprevir SSD tablets are administered with food.

Data set [2] is described as follows: Physical stability of tablets spiked with crystalline voxilaprevir Form VIII and Form X (Tables 22, 23). It is filed as physicochemical. Conditions: in tablets in the presence of pre-existing crystalline voxilaprevir. How it is done: For each of the impact studies, the sofosbuvir/velpatasvir SSD/voxilaprevir SSD tablets were packaged in a designated commercial packaging configuration (28-count, 100 mL HPDE bottle, coil, 1 g desiccant), and stored for 12 weeks at 25° C./60% RH and 40° C./75% RH. Tablets were also packaged in open containers (28-count, 100 mL HPDE bottle without cap) and stored for 4 weeks at 40° C./75% RH and for 1 week at 50° C./92% RH.
The impact of crystalline voxilaprevir Form VIII and Form X seeds on the physical stability and dissolution of sofosbuvir/velpatasvir SSD/voxilaprevir SSD tablets was evaluated (Tables 22 and 23). As described in Table 22, sofosbuvir/velpatasvir SSD/voxilaprevir SSD tablets Lots A and B were spiked with 5 and 10% w/w Form VIII (% w/w with respect to total voxilaprevir), respectively. Sofosbuvir/velpatasvir SSD/voxilaprevir SSD tablets Lots C and D, as described in Table 23, were spiked with 10 and 20% w/w Form X (% w/w with respect to total voxilaprevir), respectively.

Data set [3] in a line: Aqueous solubility of voxilaprevir Form VIII relative to Form VI. It is filed as physicochemical.
A short description of data set [4]: Relative bioavailability of voxilaprevir amorphous free acid tablets vs Form VI tablets, fasted and fed, healthy subjects (Table 3). It is filed as in vivo, human. The text has this: Accordingly, a spray dried dispersion of voxilaprevir in the amorphous free acid form was selected for incorporation into the tablet formulation.
The nature of data set [5]: Solid-state properties and open-container stability of sofosbuvir Forms 6 and 7. It is filed as physicochemical. The text has this:
In some embodiments, and the Examples presented herein, the tablet formulation includes sofosbuvir having Form 6 and, optionally, a trace amount of Form 7. […] Form 6 of sofosbuvir is the thermodynamically stable form and remains physically stable when suspended in water. Form 7 of Sofosbuvir, while physically stable in water for short periods of time, can be converted to Form 6 with prolonged stirring.

Where [6] appears, read: 100 mg tablets, healthy subjects.

For the compound `C[C@H](NP(=O)(O)OC[C@H]1OC(n2ccc(=O)[nH]c2=O)[C@](C)(F)[C@@H]1O)C(=O)O` (stereo partly shown) [Formulation M2], in data set [1], the “effect of food on plasma exposure” value was “does not substantially alter”.
As to `COC[C@H]1C[C@@H](c2ncc(-c3ccc4c(c3)COc3cc5c(ccc6nc([C@@H]7CC[C@H](C)N7C(=O)[C@@H](NC(=O)OC)C(C)C)[nH]c65)cc3-4)[nH]2)N(C(=O)[C@H](NC(=O)OC)c2ccccc2)C1` [amorphous velpatasvir free base, velpatasvir], in data set [2], the tendency to crystallize result is “no tendency to crystallize”.
Consider `CC[C@@H]1[C@@H]2CN(C(=O)[C@H](C(C)(C)C)NC(=O)O[C@@H]3C[C@H]3CCCCC(F)(F)c3nc4ccc(OC)cc4nc3O2)[C@@H]1C(=O)N[C@]1(C(=O)NS(=O)(=O)C2(C)CC2)C[C@H]1C(F)F` [Form VIII, voxilaprevir], for which the “aqueous solubility, less than that of crystalline Form VI” value in data set [3] is “approximately 50%”.
`C[C@@]1(F)[C@H](O)[C@@H](CO)O[C@H]1n1ccc(=O)[nH]c1=O` [Formulation M1]: in data set [1], the “effect of food on plasma exposure” value is reported as “does not substantially alter”.
Regarding `CC[C@@H]1[C@@H]2CN(C(=O)[C@H](C(C)(C)C)NC(=O)O[C@@H]3C[C@H]3CCCCC(F)(F)c3nc4ccc(OC)cc4nc3O2)[C@@H]1C(=O)N[C@]1(C(=O)NS(=O)(=O)C2(C)CC2)C[C@H]1C(F)F` [Amorphous Free Acid, voxilaprevir], the tendency to crystallize entry in data set [2] is “no tendency to crystallize”. In data set [4] (setting [6]), the “higher Cmax compared to Form VI tablets (2×50 mg)” value is ~43% and the “higher exposure (AUC) compared to Form VI tablets (2×50 mg)” value was “approximately 9%”. This compound registered a peak concentration (Cmax) in data set [4] (single dose 100 mg, healthy subjects, fed (with moderate food)) of 44.2 ng/mL. Also, in data set [4] (single dose, fasted), the “Geometric Least Square Ratio Amorphous Free Acid/Form VI GMR, AUCinf” value was 1.09 and the “Geometric Least Square Ratio Amorphous Free Acid/Form VI GMR, Cmax” value was determined as 1.43.
On to `CC(C)OC(=O)[C@H](C)N[P@](=O)(OC[C@H]1O[C@@H](n2ccc(=O)[nH]c2=O)[C@](C)(F)[C@@H]1O)Oc1ccccc1` [Form 6, sofosbuvir], for which, in data set [5], the hygroscopicity result is “non-hygroscopic” and the photosensitivity result was “not photosensitive”. Besides, the “physical and chemical stability” value in data set [5] (open container, 1 month at 40° C./75% RH) was “physically and chemically stable”.
